{"source": "patent US9981972B2", "about": "“N-hydroxy bicyclic hydantoin carbamates as tools for identification of serine hydrolase targets” (ABIDE THERAPEUTICS, INC., priority 2014, dated 2018)", "key": {"ABHD4 [1]": {"molecular_target": "T1, ABHD4 (Homo sapiens, UniProt Q8TB40)", "T1 sequence (Q8TB40 1-342)": "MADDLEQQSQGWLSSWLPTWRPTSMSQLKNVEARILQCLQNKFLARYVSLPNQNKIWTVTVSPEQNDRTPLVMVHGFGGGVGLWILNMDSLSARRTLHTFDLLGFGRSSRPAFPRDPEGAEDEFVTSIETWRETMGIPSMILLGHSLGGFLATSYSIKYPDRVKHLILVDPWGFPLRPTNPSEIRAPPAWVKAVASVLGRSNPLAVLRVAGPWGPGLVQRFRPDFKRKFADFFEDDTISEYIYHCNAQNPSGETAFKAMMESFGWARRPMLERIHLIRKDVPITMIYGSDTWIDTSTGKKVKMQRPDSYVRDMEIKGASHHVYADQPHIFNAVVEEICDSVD", "assay": "Gel-based competitive ABPP, recombinant enzyme in transfected HEK293T cell lysates", "format": "biochemical", "design": "myc-his; expressed in transfected cells; host or cells: HEK293T, transient transfection, pcDNA3.1/myc-his; lysate used in vitro", "details": "recombinant", "summary_of_the_method": "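Human ABHD4 was expressed by transient transfection in HEK293T cells, and lysates were combined with those expressing ABHD3. Inhibition was monitored by gel-based competitive activity-based protein profiling, with compound applied either in situ to cells or in vitro to lysates.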"}, "ABHD4 [2]": {"molecular_target": "T1, ABHD4", "assay": "ABPP-SILAC, PC3 cells treated in situ", "format": "cell-based", "design": "endogenous in cells; host or cells: PC3", "details": "4 h in situ; for inhibition of ABHD4 in PC3 cells: FP-biotin", "procedure": "In situ inhibitor treatments of human cell lines were performed as described previously (Hsu et al., J Med Chem 56, 8270-8279, 2012). Briefly, PC3 or transfected HEK293T cells were grown to confluency in serum-containing media (RPMI or DMEM, respectively). The culture media was then removed and replaced with fresh media containing DMSO or inhibitor at the desired concentration and incubated for 4 hours in a tissue culture incubator (37° C., 5% CO2). Cells were then washed with PBS, harvested, washed with PBS once more, and lysed with a probe sonicator.\nThe activity and selectivity of dual ABHD3/4 and ABHD4-preferring inhibitors in PC3 cells by ABPP-SILAC was assessed. Isotopically heavy and light PC3 cells were treated in situ with inhibitor (Compound 37 (1 μM) or Compound 38 (0.5 μM)) or DMSO for 4 h and then lysed and processed for ABPP-SILAC analysis.\nTo evaluate the broader selectivity of Compound 26 and Compound 34 across the SH class, heavy and light isotopically-labeled PC3 cells were treated with inhibitor [Compound 34 (1 μM); or Compound 26 (1 or 0.1 μM); 4 h) and DMSO, respectively, followed by ABPP-SILAC analysis with either the FP-biotin probe or the Compound 39 probe. […] Conversely, Compound 34 inhibited >90% of ABHD4 activity, as measured with either the FP-biotin probe or the Compound 39 probe, and cross-reacted with four additional targets—ABHD6, PAFAH2, PLA2G7, and PLA2G15."}, "human LYPLA2": {"molecular_target": "T2, human LYPLA2 (Homo sapiens, UniProt O95372)", "T2 construct": "endogenous human LYPLA1/2 in a HeLa soluble proteome; endogenous in cells; host or cells: HeLa (soluble proteome in vitro; cultured cells in situ)", "T2 sequence (O95372 whole entry)": "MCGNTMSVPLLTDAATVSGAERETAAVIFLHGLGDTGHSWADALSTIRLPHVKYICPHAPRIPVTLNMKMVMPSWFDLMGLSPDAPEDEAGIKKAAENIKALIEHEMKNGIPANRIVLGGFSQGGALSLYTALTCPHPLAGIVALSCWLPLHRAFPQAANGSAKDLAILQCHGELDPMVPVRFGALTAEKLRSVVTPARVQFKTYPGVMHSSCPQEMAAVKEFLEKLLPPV", "assay": "IC50 by gel-based competitive ABPP in vitro, soluble HeLa cell proteome", "format": "biochemical", "procedure": "(§1) Assay Overview: The purpose of this assay was to determine IC50 values of powder samples of test compounds for enzyme of interest activity, and anti-targets in a complex proteomic lysate using a gel-based competitive ABPP assay. In this assay, a complex proteome was incubated with test compound followed by reaction with FP-Rh and SDS-PAGE analysis as described above.\n(§2) Protocol Summary: Soluble HeLa cell proteome (50 μL reaction volume, 1 mg/mL in DPBS) or mouse brain membrane proteome (50 μL reaction volume, 1 mg/mL in DPBS) was treated with varying concentrations of test compound (1 μL of a 50× stock in DMSO) for 30 minutes at 37° C. FP-Rh (1 μL of 50× stock in DMSO) was added to a final concentration of 2 μM. The reaction was incubated for 30 minutes at 25° C., quenched with 16 μL 4×SDS-PAGE loading buffer (reducing), separated by SDS-PAGE and visualized by in-gel fluorescent scanning. The percentage activity remaining was determined by measuring the integrated optical density of the enzymes of interest, and anti-target bands relative to a DMSO-only (no compound) control. IC50 values were determined from dose-response curves from three replicates at each inhibitor concentration: 1, 10, 100, 1000, 10000 nM and 0.01, 0.1, 1, 10, 100, 1000, 10000, 50000, and 100000 nM."}, "human LYPLA1": {"molecular_target": "T3, human LYPLA1 (Homo sapiens, UniProt O75608)", "T3 construct": "endogenous human LYPLA1/2 in a HeLa soluble proteome; endogenous in cells; host or cells: HeLa (soluble proteome in vitro; cultured cells in situ)", "T3 sequence (O75608 whole entry)": "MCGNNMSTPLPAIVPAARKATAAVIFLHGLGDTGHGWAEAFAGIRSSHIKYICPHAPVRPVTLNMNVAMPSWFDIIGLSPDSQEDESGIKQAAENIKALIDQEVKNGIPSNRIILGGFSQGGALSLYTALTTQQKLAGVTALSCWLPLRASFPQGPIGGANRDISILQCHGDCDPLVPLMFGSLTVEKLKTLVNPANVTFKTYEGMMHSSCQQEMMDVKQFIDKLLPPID", "assay": "IC50 by gel-based competitive ABPP in vitro, soluble HeLa cell proteome", "format": "biochemical", "procedure": "as §1, §2"}, "[3]": {"details": "second value of the cell, read-out: hLYPLA1/2 in vitro potency (IC50): hLYPLA2"}, "[4]": {"details": "first value of the cell, read-out: hLYPLA1/2 in vitro potency (IC50): hLYPLA1"}, "[5]": {"details": "transfected HEK293T lysates, read-out: hABHD4 in vitro potency (IC50)"}}, "note": "Like-named read-outs stand apart in the source and are kept apart here."}
{"smiles": "O=C(ON1C(=O)C2CN(Cc3ccc(Oc4ccccc4)cc3)CCN2C1=O)N1CCC(c2ccccc2)CC1", "note": "(stereo not shown) [Compound 38, 1,3-dioxo-7-(4-phenoxybenzyl)hexahydroimidazo[1,5-a]pyrazin-2(3H)-yl 4-phenylpiperidine-1-carboxylate]", "values": [{"measurement": "IC50", "setting": "ABHD4 [1]; combined HEK293T lysates, gel-based ABPP, read-out: ABHD4 IC50", "value": 30, "unit": "nM"}, {"measurement": "inhibition of ABHD4 in PC3 cells", "setting": "ABHD4 [2]; 0.5 μM", "value": "inhibit both ABHD3 and ABHD4"}]}
{"smiles": "C#Cc1ccc(CCC2CCN(C(=O)ON3C(=O)[C@@H]4CN(C(=O)N5CCOCC5)CCN4C3=O)CC2)cc1", "note": "[Compound 48, (S)-7-(morpholine-4-carbonyl)-1,3-dioxo-hexahydroimidazo[1,5-a]pyrazin-2(3H)-yl 4-(4-ethynylphenethyl)piperidine-1-carboxylate]", "values": [{"measurement": "IC50", "setting": "human LYPLA2; [3]", "value": 1830, "unit": "nM"}, {"measurement": "IC50", "setting": "human LYPLA1; [4]", "value": 1750, "unit": "nM"}]}
{"smiles": "COc1ccc(N2CCN(C(=O)ON3C(=O)C4CN(Cc5ccc(Oc6ccccc6)cc5)CCN4C3=O)CC2)cc1", "note": "(stereo not shown) [Compound 37, 1,3-dioxo-7-(4-phenoxybenzyl)hexahydroimidazo[1,5-a]pyrazin-2(3H)-yl 4-(4-methoxyphenyl)piperazine-1-carboxylate]", "values": [{"measurement": "preference ABHD4 over ABHD3", "setting": "ABHD4 [1]; combined HEK293T lysates, gel-based ABPP", "value": "preferentially inhibited ABHD4 over ABHD3"}, {"measurement": "IC50", "setting": "ABHD4 [1]; [5]", "value": 100, "unit": "nM"}, {"measurement": "inhibition of ABHD4 in PC3 cells", "setting": "ABHD4 [2]; 1 μM", "value": "completely inhibited"}]}
{"smiles": "C#Cc1ccc(CCC2CCN(C(=O)ON3C(=O)[C@H]4CN(C(=O)N5CCOCC5)CCN4C3=O)CC2)cc1", "note": "[Compound 49, (R)-7-(morpholine-4-carbonyl)-1,3-dioxo-hexahydroimidazo[1,5-a]pyrazin-2(3H)-yl 4-(4-ethynylphenethyl)piperidine-1-carboxylate]", "values": [{"measurement": "IC50", "setting": "human LYPLA2; [3]", "value": 1430, "unit": "nM"}, {"measurement": "IC50", "setting": "human LYPLA1; [4]", "value": 842, "unit": "nM"}]}
{"smiles": "O=C(ON1C(=O)C2CN(Cc3ccc(Oc4ccccc4)cc3)CCN2C1=O)N1CCOCC1", "note": "(stereo not shown) [Compound 34, 1,3-dioxo-7-(4-phenoxybenzyl)hexahydroimidazo[1,5-a]pyrazin-2(3H)-yl morpholine-4-carboxylate]", "values": [{"measurement": "IC50", "setting": "ABHD4 [1]; [5]", "value": "~1000", "unit": "nM"}, {"measurement": "inhibition at 1 µM", "setting": "ABHD4 [2]; PC-3, 1 μM, FP-biotin or Compound 39 probe", "value": "> 90", "unit": "%"}]}
{"smiles": "O=C(ON1C(=O)C2CN(C(=O)N3CCOCC3)CCN2C1=O)N1CCC(CCc2ccc(Cl)cc2)CC1", "note": "(stereo not shown) [Compound 1, 7-(morpholine-4-carbonyl)-1,3-dioxohexahydroimidazo[1,5-a]pyrazin-2(3H)-yl 4-(4-chloro-phenethyl)piperidine-1-carboxylate]", "values": [{"measurement": "IC50", "setting": "human LYPLA2; HeLa cell lysates, FP-Rh, read-out: human LYPLA2 IC50 in vitro", "value": 245, "unit": "nM"}, {"measurement": "IC50", "setting": "human LYPLA1; HeLa cell lysates, FP-Rh, read-out: human LYPLA1 IC50 in vitro", "value": 122, "unit": "nM"}]}
